System: IFNγ-induced NO production in RAW264.7 mouse macrophages
Assay: Nitric oxide production and cell viability protocol used for TX64343 (RAW264.7, Griess, Cell Titer-Glo)
Type: cell-based
Conditions: slightly different assay procedure: DMEM+10% FBS, 0-30 μM or 0-3 μM dose range, IFNγ 24 h
Description: On the next day, cells were pre-treated with DMSO or drug (0-30 μM or 0-3 μM dose range) for 2 hours, and then treated with IFNγ for 24 hours. Nitric Oxide concentration in media was determined using the Griess reagent system (Promega). Cell viability was determined using Cell Titer-Glo (Promega). IC50 values were determined based on the suppression of IFNγ induced Nitric Oxide production.

| Structure (SMILES) | IC50 [nM] |
| --- | --- |
| CNC(=O)CC[C@]12CCC(C)(C)C[C@H]1[C@H]1C(=O)C=C3[C@@]4(C)[C@H]5O[C@@]5(C#N)C(=O)C(C)(C)[C@@H]4CC[C@@]3(C)[C@]1(C)CC2 [TX64343] | 20.1 |

System: IFNγ-induced NO production in RAW264.7 mouse macrophages
Assay: Suppression of IFNγ-induced NO production in RAW264.7 (Griess, normalized to WST-1 viability)
Type: cell-based
Conditions: RAW264.7, 2 h pre-treatment (0-200 nM dose range), IFNγ 24 h, normalized to cell viability
Description: On the next day, cells were pre-treated with DMSO or drug (0-200 nM dose range) for 2 hours, and then treated with recombinant mouse IFNγ (R&D Systems) for 24 hours. Nitric Oxide concentration in media was determined using the Griess reagent system (Promega). Cell viability was determined using WST-1 reagent (Roche). IC50 values were determined based on the suppression of IFNγ induced Nitric Oxide production normalized to cell viability.

| Structure (SMILES) | IC50 [nM] |
| --- | --- |
| CC1(C)CC[C@]2(CO)CC[C@]3(C)[C@H](C(=O)C=C4[C@@]5(C)[C@H]6O[C@@]6(C#N)C(=O)C(C)(C)[C@@H]5CC[C@]43C)[C@@H]2C1 [TX63537] | 1.5 |
| COC(=O)[C@]12CCC(C)(C)C[C@H]1[C@H]1C(=O)C=C3[C@@]4(C)[C@H]5O[C@H]5C(=O)C(C)(C)[C@@H]4CC[C@@]3(C)[C@]1(C)CC2 [TX63211] | > 200 |
| COC(=O)[C@]12CCC(C)(C)C[C@H]1[C@H]1C(=O)C[C@@H]3[C@@]4(C)[C@H]5O[C@@]5(C#N)C(=O)C(C)(C)[C@@H]4CC[C@@]3(C)[C@]1(C)CC2 [TX63210] | 44 |
| COC(=O)N[C@]12CCC(C)(C)C[C@H]1[C@H]1C(=O)C=C3[C@@]4(C)[C@H]5O[C@@]5(C#N)C(=O)C(C)(C)[C@@H]4CC[C@@]3(C)[C@]1(C)CC2 [TX63654] | 6.5 |
| CC1(C)CC[C@]2(C(=O)NCC(F)(F)F)CC[C@]3(C)[C@H](C(=O)C[C@@H]4[C@@]5(C)[C@H]6O[C@@]6(C#N)C(=O)C(C)(C)[C@@H]5CC[C@]43C)[C@@H]2C1 [TX63241] | > 200 |
| COC(=O)[C@]12CCC(C)(C)C[C@H]1[C@H]1C(=O)C=C3[C@]4(C)[C@@H](CC[C@@]3(C)[C@]1(C)CC2)C(C)(C)C(=O)[C@@]1(C#N)O[C@@H]41 [TX63212] | 1.6 |
| CC[C@]12CCC(C)(C)C[C@H]1[C@H]1C(=O)C=C3[C@@]4(C)[C@H]5O[C@@]5(C#N)C(=O)C(C)(C)[C@@H]4CC[C@@]3(C)[C@]1(C)CC2 [TX63539] | 14 |
| CC1(C)CC[C@]2(NC(=O)C(C)(F)F)CC[C@]3(C)[C@H](C(=O)C=C4[C@@]5(C)[C@H]6O[C@@]6(C#N)C(=O)C(C)(C)[C@@H]5CC[C@]43C)[C@@H]2C1 [TX63647] | 15 |
| C[C@@H]1C(=O)[C@]2(C#N)O[C@@H]2[C@]2(C)C3=CC(=O)[C@@H]4[C@@H]5CC(C)(C)CC[C@]5(NC(=O)C(C)(F)F)CC[C@@]4(C)[C@]3(C)CC[C@@H]12 [TX63946] | 0.6 |
| CC1(C)CC[C@]2(C#N)CC[C@]3(C)[C@H](C(=O)C[C@@H]4[C@@]5(C)[C@H]6O[C@@]6(C#N)C(=O)C(C)(C)[C@@H]5CC[C@]43C)[C@@H]2C1 [TX63967] | 24 |
| COC(=O)[C@]12CCC(C)(C)C[C@H]1[C@H]1C(=O)C=C3[C@@]4(C)[C@H]5O[C@@]5(C#N)C(=O)C(C)(C)[C@@H]4CC[C@@]3(C)[C@]1(C)CC2 [TX63098] | 2.3 |
| CN(C)C(=O)N[C@]12CCC(C)(C)C[C@H]1[C@H]1C(=O)C=C3[C@@]4(C)[C@H]5O[C@@]5(C#N)C(=O)C(C)(C)[C@@H]4CC[C@@]3(C)[C@]1(C)CC2 [TX63924] | 45 |
| CCNC(=O)[C@]12CCC(C)(C)C[C@H]1[C@H]1C(=O)C=C3[C@@]4(C)[C@H]5O[C@@]5(C#N)C(=O)C(C)(C)[C@@H]4CC[C@@]3(C)[C@]1(C)CC2 [TX63100] | 23 |
| COC(=O)[C@]12CCC(C)(C)C[C@H]1[C@H]1C(=O)C=C3[C@@]4(C)[C@H]5O[C@@]5(Br)C(=O)C(C)(C)[C@@H]4CC[C@@]3(C)[C@]1(C)CC2 [TX63392] | > 200 |
| CCNC(=O)[C@]12CCC(C)(C)C[C@H]1[C@H]1C(=O)C=C3[C@@]4(C)[C@H]5O[C@@]5(C#N)C(=O)[C@@H](C)[C@@H]4CC[C@@]3(C)[C@]1(C)CC2 [TX63962] | 1.1 |
| COC(=O)[C@]12CCC(C)(C)C[C@H]1[C@H]1C(=O)C[C@@H]3[C@@]4(C)[C@H]5O[C@@]5(C#N)C(=O)[C@@H](C)[C@@H]4CC[C@@]3(C)[C@]1(C)CC2 [TX63813] | 6.6 |
| CC1(C)CC[C@]2(CO)CC[C@]3(C)[C@H](C(=O)C[C@@H]4[C@@]5(C)[C@H]6O[C@@]6(C#N)C(=O)C(C)(C)[C@@H]5CC[C@]43C)[C@@H]2C1 [TX63966] | 52 |
| COC(=O)[C@]12CCC(C)(C)C[C@H]1[C@H]1C(=O)C=C3[C@]4(C)[C@@H](CC[C@@]3(C)[C@]1(C)CC2)C(C)(C)C(=O)[C@]1(C(N)=O)O[C@@H]14 [TX63315] | > 200 |
| CC1(C)CC[C@]2(C(=O)O)CC[C@]3(C)[C@H](C(=O)C=C4[C@@]5(C)[C@H]6O[C@@]6(C#N)C(=O)C(C)(C)[C@@H]5CC[C@]43C)[C@@H]2C1 [TX63160] | 30 |
| CC1(C)CC[C@]2(C(=O)n3ccnc3)CC[C@]3(C)[C@H](C(=O)C=C4[C@@]5(C)[C@H]6O[C@@]6(C#N)C(=O)C(C)(C)[C@@H]5CC[C@]43C)[C@@H]2C1 [TX63960] | 2.9 |
| CC1(C)CC[C@]2(C(=O)NCC(F)(F)F)CC[C@]3(C)[C@H](C(=O)C=C4[C@@]5(C)[C@H]6O[C@@]6(C#N)C(=O)C(C)(C)[C@@H]5CC[C@]43C)[C@@H]2C1 [TX63158] | 16 |
| Cc1nnc([C@]23CCC(C)(C)C[C@H]2[C@H]2C(=O)C=C4[C@@]5(C)[C@H]6O[C@@]6(C#N)C(=O)C(C)(C)[C@@H]5CC[C@@]4(C)[C@]2(C)CC3)o1 [TX63947] | 2.5 |

From patent US9556222B2, “A-ring epoxidized triterpenoid-based anti-inflammation modulators and methods of use thereof” (priority 2012, dated 2017)
